Values of other authors, collected in patent US6541263B2, “Determination of corticosteroids in human plasma using micromass LC/MS/MS” (Euro-Celtique, S.A. Luxembourg, priority 2001, dated 2003).

System: eosinophils
Details: IL-5-mediated survival

C[C@]12CCC(=O)C=C1CC[C@@H]1[C@@H]2[C@@H](O)C[C@@]2(C)[C@H]1CC[C@]2(O)C(=O)CO [hydrocortisone]
inhibition of IL-5-mediated eosinophil survival: dose-dependent inhibition
